Reference: PubChem BioAssay (NCI)
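These data come from cells grown in 96-well plates and exposed to compound for 48 hours at five concentrations. GI50 is the concentration that inhibits growth by half. TGI is the concentration that stops growth completely.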

Legend:
Test in all cases: growth of human tumour cells (NCI), 48 h
[1] = system: 786-0 renal
[2] = system: A498 renal
[3] = system: A549 NSCLC
[4] = system: ACHN renal
[5] = system: CAKI-1 renal
[6] = system: CCRF-CEM leukemia
[7] = system: COLO 205 colon
[8] = system: DU-145 prostate
[9] = system: EKVX NSCLC
[10] = system: HCC-2998 colon
[11] = system: HCT-116 colon
[12] = system: HCT-15 colon
[13] = system: HL-60(TB) leukemia
[14] = system: HOP-62 NSCLC
[15] = system: HOP-92 NSCLC
[16] = system: HS 578T breast
[17] = system: HT29 colon
[18] = system: IGROV1 ovarian
[19] = system: K-562 leukemia
[20] = system: KM12 colon
[21] = system: LOX IMVI melanoma
[22] = system: M14 melanoma
[23] = system: MALME-3M melanoma
[24] = system: MCF7 breast
[25] = system: MDA-MB-231 breast
[26] = system: MDA-MB-435
[27] = system: MOLT-4 leukemia
[28] = system: NCI-H226 lung
[29] = system: NCI-H23 lung
[30] = system: NCI-H460 lung
[31] = system: NCI-H522 lung
[32] = system: NCI/ADR-RES ovarian
[33] = system: OVCAR-3 ovarian
[34] = system: OVCAR-4 ovarian
[35] = system: OVCAR-5 ovarian
[36] = system: OVCAR-8 ovarian
[37] = system: PC-3 prostate
[38] = system: RPMI-8226 leukemia
[39] = system: RXF 393 renal
[40] = system: SF-268 CNS
[41] = system: SF-295 CNS
[42] = system: SF-539 CNS
[43] = system: SK-MEL-2 melanoma
[44] = system: SK-MEL-28 melanoma
[45] = system: SK-MEL-5 melanoma
[46] = system: SK-OV-3 ovarian
[47] = system: SN12C renal
[48] = system: SNB-19 CNS
[49] = system: SNB-75 CNS
[50] = system: SR leukemia
[51] = system: SW-620 colon
[52] = system: T-47D breast
[53] = system: TK-10 renal
[54] = system: U251 CNS
[55] = system: UACC-257 melanoma
[56] = system: UACC-62 melanoma
[57] = system: UO-31 renal

SMILES: CCC(/C=C(C)/C=C/C(=O)c1c(O)c(-c2ccc(O)cc2)c[nH]c1=O)CO (centres undefined)
- GI50 [1]: 8.1 µM
- TGI [1]: 20.6 µM
- GI50 [2]: 3.69 µM
- TGI [2]: 18.8 µM
- GI50 [3]: 20.7 µM
- TGI [3]: 93.8 µM
- GI50 [4]: 11.9 µM
- TGI [4]: 37.9 µM
- GI50 [5]: 10.5 µM
- TGI [5]: 47.5 µM
- GI50 [6]: 3.53 µM
- TGI [6]: 26.7 µM
- GI50 [7]: 15.5 µM
- TGI [7]: 28.8 µM
- GI50 [8]: 2.83 µM
- TGI [8]: 12.5 µM
- GI50 [9]: 15.4 µM
- TGI [9]: 68 µM
- GI50 [10]: 13 µM
- TGI [10]: 25.6 µM
- GI50 [11]: 6.61 µM
- TGI [11]: 19.2 µM
- GI50 [12]: 8.13 µM
- TGI [12]: 22.1 µM
- GI50 [13]: 2.83 µM
- TGI [13]: 17.4 µM
- GI50 [14]: 14.2 µM
- TGI [14]: 37.2 µM
- GI50 [15]: 8.55 µM
- TGI [15]: 82.6 µM
- GI50 [16]: 2.78 µM
- TGI [16]: 36.1 µM
- GI50 [17]: 13.9 µM
- TGI [17]: 29.2 µM
- GI50 [18]: 6.11 µM
- TGI [18]: 42.1 µM
- GI50 [19]: 4.11 µM
- TGI [19]: 37.4 µM
- GI50 [20]: 4.2 µM
- TGI [20]: 16.1 µM
- GI50 [21]: 9.87 µM
- TGI [21]: 21.5 µM
- GI50 [22]: 12.9 µM
- TGI [22]: 26.7 µM
- GI50 [23]: 10.3 µM
- TGI [23]: 26.4 µM
- GI50 [24]: 4.35 µM
- TGI [24]: 18.9 µM
- GI50 [25]: 9.17 µM
- TGI [25]: 29.5 µM
- GI50 [26]: 4.34 µM
- TGI [26]: 31.9 µM
- GI50 [27]: 5.84 µM
- TGI [27]: 44.2 µM
- GI50 [28]: 18 µM
- TGI [28]: > 100 µM
- GI50 [29]: 9.55 µM
- TGI [29]: 24.1 µM
- GI50 [30]: 6.15 µM
- TGI [30]: 21.9 µM
- GI50 [31]: 5.56 µM
- TGI [31]: 21 µM
- GI50 [32]: 21.6 µM
- TGI [32]: > 100 µM
- GI50 [33]: 3.8 µM
- TGI [33]: 16.1 µM
- GI50 [34]: 12 µM
- TGI [34]: > 100 µM
- GI50 [35]: 13 µM
- TGI [35]: 27.1 µM
- GI50 [36]: 8.34 µM
- TGI [36]: > 100 µM
- GI50 [37]: 14.3 µM
- TGI [37]: 82.1 µM
- GI50 [38]: 6.89 µM
- TGI [38]: 32.3 µM
- GI50 [39]: 5.82 µM
- TGI [39]: 22.2 µM
- GI50 [40]: 6.8 µM
- TGI [40]: 21.1 µM
- GI50 [41]: 10.1 µM
- TGI [41]: 30.9 µM
- GI50 [42]: 3.22 µM
- TGI [42]: 26 µM
- GI50 [43]: 16 µM
- TGI [43]: 52.2 µM
- GI50 [44]: 11.8 µM
- TGI [44]: 24.6 µM
- GI50 [45]: 11.2 µM
- TGI [45]: 24.3 µM
- GI50 [46]: 23.4 µM
- TGI [46]: 99.5 µM
- GI50 [47]: 11.8 µM
- TGI [47]: 41.9 µM
- GI50 [48]: 11.9 µM
- TGI [48]: 27.4 µM
- GI50 [49]: 6.11 µM
- TGI [49]: 24.5 µM
- GI50 [50]: 2.43 µM
- TGI [50]: 13.2 µM
- GI50 [51]: 10.7 µM
- TGI [51]: 26.9 µM
- GI50 [52]: 10.6 µM
- TGI [52]: 54.2 µM
- GI50 [53]: 20.4 µM
- TGI [53]: 80.8 µM
- GI50 [54]: 6.91 µM
- TGI [54]: 23.9 µM
- GI50 [55]: 11.3 µM
- TGI [55]: 25 µM
- GI50 [56]: 10.2 µM
- TGI [56]: 23.3 µM
- GI50 [57]: 6.74 µM
- TGI [57]: 28.7 µM
